Type: cell-based
Source text: • II The following assay results were obtained in an in vitro assay to test for inhibition of Trypanosoma (T) and Plasmodium (P) species.

| Substance | Cytotoxicity MIC |
| --- | --- |
| PAMAM 4.0 EDA(NHCSNH SaccharinNa)32 [BRI6157] | >100 µg/mL |
| PAMAM 4.0 EDA(NHCSNH-3,5 Ph [COOH]2)32 [BRI6195] | >100 µg/mL |
| BHAlys31lys32(NHCSNHPhOP[O] [ONa]2)64 [BRI6181] | >100 µg/mL |

Source: patent US7572459B2, “Anionic or cationic dendrimer antimicrobial or antiparasitic compositions” (Starpharma Pty Ltd., priority 1998, dated 2009)
